Test results from ChEMBL document CHEMBL1144327, “Carbonic anhydrase inhibitors. Inhibition of the membrane-bound human and bovine isozymes IV with sulfonamides” (Bioorg Med Chem Lett, 2005).

Legend:
Carbonic anhydrase 4 [1] = target: T1, Carbonic anhydrase 4 (Bos taurus, UniProt Q95323)
T1 sequence (Q95323 whole entry): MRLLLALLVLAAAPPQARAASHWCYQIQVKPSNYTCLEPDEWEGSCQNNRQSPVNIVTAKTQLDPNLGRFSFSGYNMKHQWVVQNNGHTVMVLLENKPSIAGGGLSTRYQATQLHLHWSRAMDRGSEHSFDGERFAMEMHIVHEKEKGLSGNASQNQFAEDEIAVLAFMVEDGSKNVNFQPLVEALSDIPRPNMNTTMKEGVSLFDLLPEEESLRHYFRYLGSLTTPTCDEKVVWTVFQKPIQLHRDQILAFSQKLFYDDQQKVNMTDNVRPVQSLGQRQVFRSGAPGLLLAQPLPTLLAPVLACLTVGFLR
Description: Inhibitory activity against bovine carbonic anhydrase IV (bCAIV)

Carbonic anhydrase 4 [2] = target: Carbonic anhydrase 4 (Homo sapiens, UniProt P22748)
Sequence of Carbonic anhydrase 4 (Homo sapiens, UniProt P22748) (P22748 whole entry): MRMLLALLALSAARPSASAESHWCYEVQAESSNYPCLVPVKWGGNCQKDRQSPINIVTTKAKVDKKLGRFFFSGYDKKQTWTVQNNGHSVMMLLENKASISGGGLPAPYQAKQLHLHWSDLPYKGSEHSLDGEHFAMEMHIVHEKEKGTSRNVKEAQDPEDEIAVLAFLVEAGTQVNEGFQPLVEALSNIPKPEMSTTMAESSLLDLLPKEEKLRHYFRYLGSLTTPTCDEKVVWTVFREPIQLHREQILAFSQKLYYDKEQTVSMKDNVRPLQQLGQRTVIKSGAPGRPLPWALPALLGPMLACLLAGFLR
Description: Inhibitory activity against human carbonic anhydrase IV (hCAIV)

Compound | Ki (Carbonic anhydrase 4 [1]) [nM] | Ki (Carbonic anhydrase 4 [2]) [nM]
Nc1cccc(S(N)(=O)=O)c1 |  | 7750
NNc1ccc(S(N)(=O)=O)cc1 |  | 7700
Nc1cc(C(F)(F)F)c(S(N)(=O)=O)cc1S(N)(=O)=O [2,4-DISULFAMYLTRIFLUOROMETHYLANILINE] | 240 | 
NCc1ccc(S(N)(=O)=O)cc1 [MAFENIDE] |  | 8600
Nc1ccc(S(N)(=O)=O)cc1 [SULFANILAMIDE] |  | 9760
CC1(C)O[C@@H]2[C@@H](CO[C@@]3(COS(N)(=O)=O)OC(C)(C)O[C@@H]23)O1 [TOPIRAMATE] |  | 4900

Further compounds by falling Ki (Carbonic anhydrase 4 [2]), results first:

Ki (Carbonic anhydrase 4 [1]) [nM] | Ki (Carbonic anhydrase 4 [2]) [nM] | Compound
 | 920 | Nc1ccc(S(N)(=O)=O)cc1I
 | 910 | Nc1ccc(S(N)(=O)=O)cc1F
290 | 880 | Cc1ccc(-c2cc(C(F)(F)F)nn2-c2ccc(S(N)(=O)=O)cc2)cc1 [CELECOXIB]
 | 450 | Nc1ccc(S(N)(=O)=O)cc1Cl
 | 96 | Nc1ccc(S(N)(=O)=O)cc1Br
50 | 84 | Nc1ccc(S(=O)(=O)NCc2ccc(S(N)(=O)=O)cc2)cc1
